From patent publication US11834697B2, “Electrochemical recognition and quantification of cytochrome c oxidase expression in bacteria” (OXFORD UNIVERSITY INNOVATION LIMITED, priority 2017, dated 2023)

How the values were obtained:
[1] = Cyclic voltammetry of TMPD-BF4 at gold macroelectrode with DigiSim simulation; assay type: physicochemical
Description: [formula] in which C is the concentration, Iss represents the steady state current, F is the Faraday constant, D is the diffusion coefficient and a is the radius of the electroactive surface of the microelectrode), and its electrochemical behaviour was analysed using cyclic voltammetry. […] Various scan rates, ranging from 30 to 300 mV s^−1, were applied. As the singly oxidized form of TMPD, the TMPD^+• radical cation can be reduced to TMPD and oxidized to TMPD^2+: TMPD^+•+e^− ? TMPD (1) TMPD^2++e^− ? TMPD^+• (2)
in which only the first redox reaction is fully reversible,[25] and will be the focus of this method. Using the commercial simulation software DigiSim® (Basi), theoretical curves were fitted to the experimental data.[26-30] […] A diffusion coefficient DTMPD-BF4 of 1.0×10^−5 cm^2 s^−1 was determined for a solution temperature of 37° C. and fixed in the DigiSim® program. Detailed information about the calculation of DTMPD-BF4 can be found below. Following the approach in the literature,[31] the redox reaction (1) was simulated to determine the Butler-Volmer kinetic parameters of TMPD^+• reduction at the macroelectrode and a fitting of the concentration-independent heterogeneous standard electrochemical rate constant (ks), as well as the standard electrode potential E0, was conducted. To account for minor solution changes related to the oxidation of TMPD by oxygen, the initial concentration ratio of TMPD to TMPD^+• was slightly adjusted for each scan without changing the overall shape or position of the simulated curves. This allowed an offset correction for the presented curves and a capacitive contribution of between 10 to 30 μF was attributed. From the simulations, the standard electrochemical rate constant ks was determined to be equal to or greater than 0.025 cm s^−1, and a standard electrode potential E0 of 0.013 (±0.001) V vs. SCE was determined. […]
A diffusion coefficient (DTMPD-BF4) of 1×10^−5 cm^2 s^−1 was found following the reversible Randles-Ševčík method. […] The diffusion coefficient was determined using the equation

[2] = tested on: cytochrome c oxidase in B. subtilis; test: Chronoamperometry of drop-cast bacteria, turnover number per single bacterium; assay type: cell-based, Bacillus subtilis; details: B. subtilis grown on agar; current at 8 s; 37° C.
Description: (§1) For the localized electrochemical recognition of cytochrome c oxidases in bacteria, target cultures were immobilized onto a gold macroelectrode by drop-casting and immersed into a solution of PBS, containing 1.7 mM TMPD^+• (FIG. 3). The radical cation can be reduced electrochemically at the electrode to TMPD, providing the substrate for the target bacteria to oxidise and convert TMPD back to TMPD^+•. The chemical oxidation of TMPD to TMPD^+• can then be observed electrochemically.
A 3 mm (diameter) gold macroelectrode (Alvatek Ltd, UK) was used as the working electrode for all bioelectrochemical measurements. After polishing, sonication of the macroelectrode was applied for 2 minutes to assure removal of alumina powder from the electrode surface. Bacteria were immobilized onto the electrode by drop casting. […] Evaporation was monitored by eye and N2 flow was stopped the moment all liquid was evaporated. […]
As during drop-casting both living and dead bacteria in a solution are deposited at an electrode, flow cytometry measurements were performed to estimate the percentage of living cells in solution that contribute to the electrochemical signal (FIG. 7). […] Taking the electrochemical current during chronoamperometry (measurement point at 8 s), a turnover number was determined. […] As such, a turnover number per single bacterium (Tsb) could be calculated using the equation: […]

[3] = tested on: cytochrome c oxidase in E. coli; test: as above; assay type: cell-based, Escherichia coli
Description: as §1
A 3 mm (diameter) gold macroelectrode (Alvatek Ltd, UK) was used as the working electrode for all bioelectrochemical measurements. After polishing, sonication of the macroelectrode was applied for 2 minutes to assure removal of alumina powder from the electrode surface. Bacteria were immobilized onto the electrode by drop casting. For this purpose, the macroelectrode was placed in an electrode holder inside a 50 mL falcon tube, keeping it in an upright position. Bacteria suspension was diluted so that all depositions consisted of 3 μL bacteria suspension representing monolayer concentrations of 0.5 to 30. The falcon tube was closed and the bacteria suspension dried under N2 flow. Evaporation was monitored by eye and N2 flow was stopped the moment all liquid was evaporated. The electrode was removed from the holder and was placed in the electrochemical set up. The electrochemical cell remained thermostated to 37° C. throughout the experiments.
Chronoamperometry was carried out immediately after drop-casting of bacteria to minimize cell death at the electrode. […]
E. coli bacteria, cultured under aerobic conditions, were then investigated. […] The enhanced electrochemical signal in the presence of E. coli can also be recorded during cyclic voltammetry. However, due to the small current range detected, scan rates as low as 2 mV s^−1 need to be applied in order to visualize the oxidation process of TMPD by the bacteria. […] Consequently, chronoamperometry measurements were chosen for quantitative analyses. […]

Row | Compound | diffusion coefficient DTMPD-BF4 ([1]; 2.1 mM TMPD-BF4 in PBS pH 7.4, 37° C., Randles-Ševčík, 3 mm gold electrode) | standard electrochemical rate constant ks ([1]; TMPD^+• reduction at gold macroelectrode, fitted by simulation) [cm/s] | standard electrode potential E0 ([1]; TMPD^+•/TMPD couple, fitted by simulation) | turnover number per single bacterium (Tsb) [2] | turnover number per single bacterium (Tsb) ([3]; E. coli grown aerobically (exponential phase)) | turnover number per single bacterium (Tsb) ([3]; E. coli grown in broth to the stationary phase) | turnover number per single bacterium (Tsb) ([3]; E. coli grown to the exponential phase (aerobic), current at 8 s)
1 | N,N,N′,N′-tetramethyl-para-phenylene diamine tetrafluoroborate [TMPD-BF4] | 1×10^−5 cm^2 s^−1 | ≥ 0.025 | 0.013 (±0.001) V vs. SCE | – | – | – | –
2 | CN(C)c1ccc(N(C)C)cc1 [TMPD, N,N,N′,N′-tetramethyl-para-phenylene diamine] | – | – | – | 9.8 (±0.3)×10^8 L mol^−1 s^−1 | 3.8 (±0.06)×10^8 L mol^−1 s^−1 | 1.8 (±0.3)×10^9 L mol^−1 s^−1 | 3.8 (±0.06)×10^8 L mold s^−1
